Measured values published in patent publication US7223771B2, “Tricyclic imidazopyridines” (Altana Pharma AG, priority 2001, dated 2007).

These molecules were tested on pentagastrin-stimulated acid secretion of the perfused rat stomach. Conditions: anesthetized CD rat, dose 3.0 μmol/kg i.d. (intraduodenal).
Text: Testing of the Secretion-Inhibiting Action on the Perfused Rat Stomach
The abdomen of anesthetized rats (CD rat, female, 200–250 g; 1.5 g/kg i.m. urethane) was opened after tracheotomy by a median upper abdominal incision and a PVC catheter was fixed transorally in the esophagus and another via the pylorus such that the ends of the tubes just projected into the gastric lumen. The catheter leading from the pylorus led outward into the right abdominal wall through a side opening.
After thorough rinsing (about 50–100 ml), warm (37° C.) physiological NaCl solution was continuously passed through the stomach (0.5 ml/min, pH 6.8–6.9; Braun-Unita I). The pH (pH meter 632, glass electrode EA 147; φ=5 mm, Metrohm) and, by titration with a freshly prepared 0.01N NaOH solution to pH 7 (Dosimat 665 Metrohm), the secreted HCl were determined in the effluent in each case collected at an interval of 15 minutes.
The gastric secretion was stimulated by continuous infusion of 1 μg/kg (=1.65 ml/h) of i.v. pentagastrin (left femoral vein) about 30 min after the end of the operation (i.e. after determination of 2 preliminary fractions). The substances to be tested were administered intraduodenally in a 2.5 ml/kg liquid volume 60 min after the start of the continuous pentagastrin infusion.
The body temperature of the animals was kept at a constant 37.8–38° C. by infrared irradiation and heat pads (automatic, stepless control by means of a rectal temperature sensor).

Compound	Inhibition of acid secretion
CCN(CC)C(=O)c1cn2c(C)c(C)nc2c2c1CCC(c1ccccc1)O2 (stereo not drawn) [Example 1, 2,3-Dimethyl-9-phenyl-7H-8,9-dihydro-pyrano-[2,3-c]-N-(diethyl)imidazo[1,2-a]pyridine-6-carboxamide]	100%
CCOC(=O)c1cn2c(C)c(C)nc2c2c1CCC(c1ccccc1)O2 (stereo not drawn) [Example 2, Ethyl 2,3-dimethyl-9-phenyl-7H-8,9-dihydro-pyrano[2,3-c]-imidazo[1,2-a]pyridine-6-carboxylate]	100%
Cc1nc2c3c(c(C(=O)N(C)C)cn2c1C)CCC(c1ccccc1)O3 (stereo not drawn) [Example 3, 2,3-Dimethyl-9-phenyl-7H-8,9-dihydro-pyrano[2,3-c]-imidazo[1,2-a]pyridine-6-(N,N-dimethyl)carbamide]	100%
